# Reference: article PMC11912722, “Chikusetsusaponin IVa targeted YAP as an inhibitor to attenuate liver fibrosis and hepatic stellate cell activation” (Chinese Medicine, 2025)
# Biological target: T1, YAP in LX-2 cells (Homo sapiens, UniProt P46937)
# T1 construct: gene YAP1; endogenous full-length protein in LX-2 cells, detected by western blot (YAP antibody Cell Signaling 14074 T)
# Assay: CETSA, western blot
# Format: cell-based
# Details: LX-2 cells incubated 24 h with 10 μmol/L CS-IVa, lysed, supernatant heated 45-75 °C for 3 min
# T1 sequence (P46937 whole entry): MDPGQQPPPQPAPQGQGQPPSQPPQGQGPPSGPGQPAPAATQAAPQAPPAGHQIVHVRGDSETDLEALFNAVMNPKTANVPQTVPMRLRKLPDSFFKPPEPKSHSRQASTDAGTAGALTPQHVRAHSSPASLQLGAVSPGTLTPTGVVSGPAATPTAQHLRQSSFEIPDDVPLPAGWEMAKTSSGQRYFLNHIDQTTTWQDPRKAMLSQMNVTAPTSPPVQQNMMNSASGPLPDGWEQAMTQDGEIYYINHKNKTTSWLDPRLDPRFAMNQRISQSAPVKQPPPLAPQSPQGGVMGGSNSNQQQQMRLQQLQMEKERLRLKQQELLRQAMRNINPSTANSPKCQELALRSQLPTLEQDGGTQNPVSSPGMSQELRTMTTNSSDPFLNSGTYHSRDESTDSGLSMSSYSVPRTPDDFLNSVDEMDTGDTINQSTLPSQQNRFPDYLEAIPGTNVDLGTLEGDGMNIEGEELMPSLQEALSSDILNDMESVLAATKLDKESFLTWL
smiles,measurement,value
CC1(C)CC[C@]2(C(=O)O[C@@H]3O[C@H](CO)[C@@H](O)[C@H](O)[C@H]3O)CC[C@]3(C)C(=CC[C@@H]4[C@@]5(C)CC[C@H](O[C@@H]6O[C@H](C(=O)O)[C@@H](O)[C@H](O)[C@H]6O)C(C)(C)[C@@H]5CC[C@]43C)[C@@H]2C1 [CS-IVa],thermal stability (CETSA),treatment with CS-IVa significantly increased the thermal stability of YAP
